What was measured:
[1] = system: sixty human tumor cells derived from nine cancer types; experiment: NCI in vitro anticancer screen (SRB), whole panel; format: cell-based; conditions: human tumor cell lines; 48 h drug exposure, SRB
Method: (§1) The above compounds were evaluated for in vitro anticancer activity against sixty human tumor cells derived from nine cancer types (leukemia, non small cell cancer, colon cancer CNS cancer, melanoma, ovarian cancer renal cancer, prostate cancer and breast cancer) as per NCI protocol. For each compound, dose response curves for each cell line were measured at a minimum of five concentrations at 10-fold dilution. A protocol of 48 h continuous drug exposure was used, and a sulforhodamine B (SRB) protein assay was used to estimate cell viability or growth. The concentration causing 50% cell growth inhibition (GI50), total cell growth inhibition (TGI, 0% growth) and 50% cell death (LC-50% growth) compared with the control was calculated.

[2] = system: 786-0; experiment: NCI in vitro anticancer screen (SRB); format: cell-based, human; conditions: Renal, 48 h exposure
Method: as §1

[3] = system: A498; experiment: NCI in vitro anticancer screen (SRB); format: cell-based, human; conditions: Renal, 48 h exposure
Method: as §1

[4] = system: A549/ATCC; experiment: NCI in vitro anticancer screen (SRB); format: cell-based, human; conditions: Non-small cell lung, 48 h exposure
Method: as §1

[5] = system: ACHN; experiment: NCI in vitro anticancer screen (SRB); format: cell-based, human; conditions: Renal, 48 h exposure
Method: as §1

[6] = system: BT-549; experiment: NCI in vitro anticancer screen (SRB); format: cell-based, human; conditions: Breast, 48 h exposure
Method: as §1

[7] = system: CAKI-1; experiment: NCI in vitro anticancer screen (SRB); format: cell-based, human; conditions: Renal, 48 h exposure
Method: as §1

[8] = system: CCRF-CEM; experiment: NCI in vitro anticancer screen (SRB); format: cell-based, human; conditions: Leukemia, 48 h exposure
Method: as §1

[9] = system: COLO 205; experiment: NCI in vitro anticancer screen (SRB); format: cell-based, human; conditions: Colon, 48 h exposure
Method: as §1

[10] = system: DU-145; experiment: NCI in vitro anticancer screen (SRB); format: cell-based, human; conditions: Prostate, 48 h exposure
Method: as §1

[11] = system: HCC-2998; experiment: NCI in vitro anticancer screen (SRB); format: cell-based, human; conditions: Colon, 48 h exposure
Method: as §1

[12] = system: HCT-116; experiment: NCI in vitro anticancer screen (SRB); format: cell-based, human; conditions: Colon, 48 h exposure
Method: as §1

[13] = system: HL-60(TB); experiment: NCI in vitro anticancer screen (SRB); format: cell-based, human; conditions: Leukemia, 48 h exposure
Method: as §1

[14] = system: HOP-62; experiment: NCI in vitro anticancer screen (SRB); format: cell-based, human; conditions: Non-small cell lung, 48 h exposure
Method: as §1

[15] = system: HOP-92; experiment: NCI in vitro anticancer screen (SRB); format: cell-based, human; conditions: Non-small cell lung, 48 h exposure
Method: as §1

[16] = system: HS 578T; experiment: NCI in vitro anticancer screen (SRB); format: cell-based, human; conditions: Breast, 48 h exposure
Method: as §1

[17] = system: HT29; experiment: NCI in vitro anticancer screen (SRB); format: cell-based, human; conditions: Colon, 48 h exposure
Method: as §1

[18] = system: IGROV1; experiment: NCI in vitro anticancer screen (SRB); format: cell-based, human; conditions: Ovarian, 48 h exposure
Method: as §1

[19] = system: K-562; experiment: NCI in vitro anticancer screen (SRB); format: cell-based, human; conditions: Leukemia, 48 h exposure
Method: as §1

[20] = system: KM12; experiment: NCI in vitro anticancer screen (SRB); format: cell-based, human; conditions: Colon, 48 h exposure
Method: as §1

[21] = system: LOX IMVI; experiment: NCI in vitro anticancer screen (SRB); format: cell-based, human; conditions: Melanoma, 48 h exposure
Method: as §1

[22] = system: M14; experiment: NCI in vitro anticancer screen (SRB); format: cell-based, human; conditions: Melanoma, 48 h exposure
Method: as §1

[23] = system: MALME-3M; experiment: NCI in vitro anticancer screen (SRB); format: cell-based, human; conditions: Melanoma, 48 h exposure
Method: as §1

[24] = system: MCF7; experiment: NCI in vitro anticancer screen (SRB); format: cell-based, human; conditions: Breast, 48 h exposure
Method: as §1

[25] = system: MDA-MB-435; experiment: NCI in vitro anticancer screen (SRB); format: cell-based, human; conditions: Breast, 48 h exposure
Method: as §1

[26] = system: MOLT-4; experiment: NCI in vitro anticancer screen (SRB); format: cell-based, human; conditions: Leukemia, 48 h exposure
Method: as §1

[27] = system: NCI-H322M; experiment: NCI in vitro anticancer screen (SRB); format: cell-based, human; conditions: Non-small cell lung, 48 h exposure
Method: as §1

[28] = system: NCI-H460; experiment: NCI in vitro anticancer screen (SRB); format: cell-based, human; conditions: Non-small cell lung, 48 h exposure
Method: as §1

[29] = system: NCI-H522; experiment: NCI in vitro anticancer screen (SRB); format: cell-based, human; conditions: Non-small cell lung, 48 h exposure
Method: as §1

[30] = system: OVCAR-3; experiment: NCI in vitro anticancer screen (SRB); format: cell-based, human; conditions: Ovarian, 48 h exposure
Method: as §1

[31] = system: OVCAR-5; experiment: NCI in vitro anticancer screen (SRB); format: cell-based, human; conditions: Ovarian, 48 h exposure
Method: as §1

[32] = system: OVCAR-8; experiment: NCI in vitro anticancer screen (SRB); format: cell-based, human; conditions: Ovarian, 48 h exposure
Method: as §1

[33] = system: PC-3; experiment: NCI in vitro anticancer screen (SRB); format: cell-based, human; conditions: Prostate, 48 h exposure
Method: as §1

[34] = system: RPMI-8226; experiment: NCI in vitro anticancer screen (SRB); format: cell-based, human; conditions: Leukemia, 48 h exposure
Method: as §1

[35] = system: RXF 393; experiment: NCI in vitro anticancer screen (SRB); format: cell-based, human; conditions: Renal, 48 h exposure
Method: as §1

[36] = system: SF-268; experiment: NCI in vitro anticancer screen (SRB); format: cell-based, human; conditions: CNS, 48 h exposure
Method: as §1

[37] = system: SF-539; experiment: NCI in vitro anticancer screen (SRB); format: cell-based, human; conditions: CNS, 48 h exposure
Method: as §1

[38] = system: SK-MEL-28; experiment: NCI in vitro anticancer screen (SRB); format: cell-based, human; conditions: Melanoma, 48 h exposure
Method: as §1

[39] = system: SK-MEL-5; experiment: NCI in vitro anticancer screen (SRB); format: cell-based, human; conditions: Melanoma, 48 h exposure
Method: as §1

[40] = system: SK-OV-3; experiment: NCI in vitro anticancer screen (SRB); format: cell-based, human; conditions: Ovarian, 48 h exposure
Method: as §1

[41] = system: SN12C; experiment: NCI in vitro anticancer screen (SRB); format: cell-based, human; conditions: Renal, 48 h exposure
Method: as §1

[42] = system: SNB-19; experiment: NCI in vitro anticancer screen (SRB); format: cell-based, human; conditions: CNS, 48 h exposure
Method: as §1

[43] = system: SNB-75; experiment: NCI in vitro anticancer screen (SRB); format: cell-based, human; conditions: CNS, 48 h exposure
Method: as §1

[44] = system: SR; experiment: NCI in vitro anticancer screen (SRB); format: cell-based, human; conditions: Leukemia, 48 h exposure
Method: as §1

[45] = system: SW-620; experiment: NCI in vitro anticancer screen (SRB); format: cell-based, human; conditions: Colon, 48 h exposure
Method: as §1

[46] = system: T-47D; experiment: NCI in vitro anticancer screen (SRB); format: cell-based, human; conditions: Breast, 48 h exposure
Method: as §1

[47] = system: TK-10; experiment: NCI in vitro anticancer screen (SRB); format: cell-based, human; conditions: Renal, 48 h exposure
Method: as §1

[48] = system: U251; experiment: NCI in vitro anticancer screen (SRB); format: cell-based, human; conditions: CNS, 48 h exposure
Method: as §1

[49] = system: UACC-62; experiment: NCI in vitro anticancer screen (SRB); format: cell-based, human; conditions: Melanoma, 48 h exposure
Method: as §1

[50] = system: calf thymus (CT) DNA; experiment: Thermal denaturation studies; format: binding; conditions: [PBD]:[DNA] molar ratio 1:5; CT-DNA 100 μM, ligand 20 μM; sodium phosphate buffer pH 7.00
Method: The DNA binding affinity of the C2-Fluoro substituted piperazine linked pyrrolo[2,1c][1,4]benzodiazepine dimers were subjected to thermal denaturation studies using calf thymus (CT) DNA (Jones, G. B.; Davey, C. L.; Jenkins, T. C.; Kamal, A.; Kneale, G. G.; Neidle, S.; Webster, G. D.; Thurston, D. E. Anti-cancer Drug Des. 1990, 5, 249. McConnaughie, A. W.; Jenkins, T. C. J. Med. Chem. 1995, 38, 3488). The studies for these compounds (IXa-f) were carried out by DNA/ligand molar ratio is 1:5 the increase in the helix melting temperature (ΔTm) for each compound was examined at 0 h. […] Data for DSB-120 and SJG-136 are included in Table-3 for comparison. The synthetic DC-81 dimer (DSB-120) gives a ΔTm 10.2° C. and SJC-136 gives a […]Tm of 25° C. under identical experimental condition.

Structure (SMILES): COc1cc2c(cc1OCCCN1CCN(CCCOc3cc4c(cc3OC)C(=O)N3CC(F)(F)C[C@H]3C=N4)CC1)N=C[C@@H]1CC(F)(F)CN1C2=O [IXd, 1,1′-{[(bispropane-1,N-diyl)piperazine]dioxy}bis[(11aS)-2-2-difluoro-7-methoxy-1,2,3,11a-tetrahydro-5H-pyrrolo[2,1-c][1,4]benzodiazepine-5-one]]
- Log10 GI50 mean graph midpoint (MG_MID) [1]: −5.41
- Log10 LC50 mean graph midpoint (MG_MID) [1]: −4.2
- Log10 TGI mean graph midpoint (MG_MID) [1]: −4.79
- GI50 [2]: 3.17 µM
- GI50 [3]: 2.43 µM
- GI50 [4]: 7.3 µM
- GI50 [5]: 5.64 µM
- GI50 [6]: 3.25 µM
- GI50 [7]: 3.31 µM
- GI50 [8]: 0.9 µM
- GI50 [9]: 3.09 µM
- GI50 [10]: 3.63 µM
- GI50 [11]: 5.4 µM
- GI50 [12]: 3.59 µM
- GI50 [13]: 1.18 µM
- GI50 [14]: 3.17 µM
- GI50 [15]: 6.14 µM
- GI50 [16]: 2.94 µM
- GI50 [17]: 3.61 µM
- GI50 [18]: 1.92 µM
- GI50 [19]: 1.7 µM
- GI50 [20]: 4.1 µM
- GI50 [21]: 1.89 µM
- GI50 [22]: 3.25 µM
- GI50 [23]: 2.8 µM
- GI50 [24]: 2.09 µM
- GI50 [25]: 1.95 µM
- GI50 [26]: 2.02 µM
- GI50 [27]: 1.96 µM
- GI50 [28]: 2.6 µM
- GI50 [29]: 1.14 µM
- GI50 [30]: 3.55 µM
- GI50 [31]: 3.83 µM
- GI50 [32]: 6.3 µM
- GI50 [33]: 3.06 µM
- GI50 [34]: 2.2 µM
- GI50 [35]: 2.14 µM
- GI50 [36]: 3.57 µM
- GI50 [37]: 3 µM
- GI50 [38]: 4.28 µM
- GI50 [39]: 1.86 µM
- GI50 [40]: 8.64 µM
- GI50 [41]: 4.05 µM
- GI50 [42]: 4.08 µM
- GI50 [43]: 5.52 µM
- GI50 [44]: 0.8 µM
- GI50 [45]: 2.61 µM
- GI50 [46]: 1.38 µM
- GI50 [47]: 4.38 µM
- GI50 [48]: 3.36 µM
- GI50 [49]: 3.05 µM
- ΔTm after incubation at 37° C. for 0 h [50]: 11.0 °C

Reference: patent US8383618B2, “C2-fluoro substituted piperazine linked pyrrolo[2,1-C][1,4] benzodiazepine dimers and a process for the preparation thereof” (Council of Scientific & Industrial Research, priority 2008, dated 2013)
